Measurements as given in patent publication US20020103120A1, “Regulation of human phosphodiesterase-like enzyme” (priority 2000, published 2002).
“And” between values parts separate entries of the source, which are not always exact repeats. Identical values can stand only once.

How the values were obtained:
PDE11A4 [1] = molecular target: T1, PDE11A4 (Homo sapiens, UniProt Q9HCR9); assay: PDE11A4 scintillation proximity assay (SPA), inhibition of [3H]-cGMP hydrolysis; format: biochemical; details: 0.4 μM [3H]-cGMP, 1 ng PDE11A4, RT 1 h, His-tagged recombinant enzyme
T1 construct: His-tag (N); made in house; host or cells: Sf21 insect cells (baculovirus)
Method: Effect of IBMX and dipyridamole was tested. Assays were performed in 384-well white plates in 20 μl containing the indicated concentration of inhibitor, 0.4 μM [^3H]-cGMP (0.025 μCi/well) and 1 ng PDE11A4 in 50 mM Tris-HCl, pH 7.5, 8.3 mM MgCl2, 1.7 mM EGTA, 0.5 mg/ml BSA. Reaction mixtures were incubated at RT for 1 h, then quenched with 30 μl of 18 mM ZnSO4 containing 0.15 mg Yttrium SPA PDE beads. The assay plates were sealed, allowed to settle for 30 min at RT, and counted on a TopCount NTX microscintillation counter (Packard). Reactions were run in triplicate.

PDE11A4 [2] = molecular target: T1, PDE11A4; assay: Lineweaver-Burk analysis of PDE11A4 SPA to determine Km for cGMP; format: biochemical; details: 1 ng PDE11A4, various cGMP concentrations, RT, 0-90 min
Method: FIG. 17. Lineweaver-Burk analysis to determine Km values for cGMP. Reaction mixtures (20 μl/well) containing 1 ng PDE11A4 and various concentrations of cGMP (1.25 mCi/μmol) were incubated at RT. At various time points between 0 and 90 min the reactions were stopped with 30 μl of 18 mM ZnSO4 containing 0.15 mg Yttrium SPA PDE beads. The assay plates were sealed, allowed to settle for 30 min at RT, and counted on a TopCount NTX microscintillation counter (Packard). Reactions were run in triplicate. A, Time courses of PDE11A4 reaction with various concentration of cGMP. B, Lineweaver-Burk analysis. The Km value for cGMP was determined as 0.4 μM.
Expression of recombinant PDE11A4 was examined by baculovirus expression system in Sf21 cells with or without His-tag at the N-terminus. Since both expression level and enzyme activity of the His-tagged PDE11A4 (His-PDE11A4) was much higher than those of non-tagged enzyme (FIG. 15), His-PDE11A4 was selected for further use. The maximum expression level and activity were obtained from the cells cultured 24 to 48 h after transfection. The His-PDE11A4 was successfully purified by Ni^2+-chelating column chromatography (FIG. 16). The assay was carried out in scintillation proximity assay (SPA) using cGMP as substrate. Km value for cGMP was determined to be 0.4 μM (FIG. 17). […]

human PDE-like enzyme = assay: Expression of human PDE-like enzyme by Western blotting in oligonucleotide-treated HCT116 cells; format: cell-based; details: HCT116, oligonucleotide added for seven days
Method: The cell line used for testing is the human colon cancer cell line HCT116. Cells are cultured in RPMI-1640 with 10-15% fetal calf serum at a concentration of 10,000 cells per milliliter in a volume of 0.5 ml and kept at 37° C. in a 95% air/5%CO2 atmosphere.
Phosphorothioate […] are synthesized on an Applied Biosystems Model 380B DNA synthesizer using phosphoroamidite chemistry. A sequence of 24 bases complementary to the nucleotides at position 1 to 24 of SEQ ID NO: 1 is used as the test oligonucleotide. As a control, another (random) sequence is used: 5′-TCAACTGACTAGATGTACATGGAC-3′. Following assembly and deprotection, oligonucleotides are ethanol-precipitated twice, dried, and suspended in phosphate buffered saline at the desired concentration. Purity of the oligonucleotides is tested by capillary gel electrophoresis and ion exchange HPLC. The purified oligonucleotides are added to the culture medium at a concentration of […] once per day for seven days.
This effect is not observed with the control oligonucleotide. After 3 to 7 days, the number of cells in the cultures is counted using an automatic cell counter. The number of cells in cultures treated with the test oligonucleotide (expressed as 100%) is compared with the number of cells in cultures treated with the control oligonucleotide.

T1 sequence (Q9HCR9 whole entry): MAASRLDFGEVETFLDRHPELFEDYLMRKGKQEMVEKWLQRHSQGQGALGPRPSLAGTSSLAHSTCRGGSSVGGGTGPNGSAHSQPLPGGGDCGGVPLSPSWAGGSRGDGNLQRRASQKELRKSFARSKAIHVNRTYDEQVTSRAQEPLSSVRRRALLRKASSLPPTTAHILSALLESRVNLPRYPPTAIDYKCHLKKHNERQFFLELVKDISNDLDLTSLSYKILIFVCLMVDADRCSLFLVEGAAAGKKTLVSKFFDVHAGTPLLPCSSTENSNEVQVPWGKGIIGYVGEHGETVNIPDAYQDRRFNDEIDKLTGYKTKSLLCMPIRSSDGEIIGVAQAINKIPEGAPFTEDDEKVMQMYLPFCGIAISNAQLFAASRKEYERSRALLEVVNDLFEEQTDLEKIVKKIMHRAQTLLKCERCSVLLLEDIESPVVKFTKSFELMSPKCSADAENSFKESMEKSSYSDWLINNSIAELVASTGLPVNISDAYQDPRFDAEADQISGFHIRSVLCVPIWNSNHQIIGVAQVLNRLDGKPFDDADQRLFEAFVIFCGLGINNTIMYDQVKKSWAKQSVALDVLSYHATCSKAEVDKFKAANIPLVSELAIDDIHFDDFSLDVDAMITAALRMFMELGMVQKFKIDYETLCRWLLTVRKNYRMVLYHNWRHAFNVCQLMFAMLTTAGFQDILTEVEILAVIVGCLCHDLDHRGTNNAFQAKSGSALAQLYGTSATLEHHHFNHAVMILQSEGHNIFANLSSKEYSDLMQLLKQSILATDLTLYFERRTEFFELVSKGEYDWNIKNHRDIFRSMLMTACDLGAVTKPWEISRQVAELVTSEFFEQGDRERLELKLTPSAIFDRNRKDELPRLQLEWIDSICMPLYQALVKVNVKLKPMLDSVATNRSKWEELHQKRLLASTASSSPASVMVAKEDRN

CC(C)Cn1c(=O)n(C)c(=O)c2[nH]cnc21 [IBMX]
IC50 (PDE11A4 [1]): 41 µM and 41.3 µM

Nc1nc2c(ncn2[C@@H]2O[C@@H]3COP(=O)(O)O[C@H]3[C@H]2O)c(=O)[nH]1 [cGMP]
Km (PDE11A4 [2]): 0.4 µM

control oligonucleotide: control (random) sequence 5′-TCAACTGACTAGATGTACATGGAC-3′ (DNA TCAACTGACTAGATGTACATGGAC; chemistry not given here)
expression of human PDE-like enzyme (Western blotting) (human PDE-like enzyme): not observed
